Test system: Black Gem (P. nigra) plums
Experiment: Bud break assessment after spraying, dormancy release in black gem plums (Example 1)
Format: in vivo
Settings: above 15 grams per liter oil; data not shown
Procedure: On the day in which spraying was initiated the number of accumulated chilling units was 14 (being equivalent of 200 hours of chilling). The trees were at a stage where 10% of the bulbs were swollen. Three branches facing different directions were selected in each tree. The upper 20 cm in each branch were examined Each branch contained approximately 13 buds. Each bud was evaluated for bud progression on three separate occasions and bud progression percentages were normalized across the examined branches [table] [table]

## O=[N+]([O-])c1cc(C(F)(F)F)c(Cl)c([N+](=O)[O-])c1Nc1ncc(C(F)(F)F)cc1Cl [fluazinam, 3-chloro-N-(3-chloro-5-trifluoromethyl-2-pyridyl)-α,α,α-trifluoro-2,6-dinitro-p-toluidine]
  efficacy of the composition versus concentration of Fluazinam in oil (regression): the efficacy of the composition decreased
